Experimental data reported in US5789438A, “Inhibitors of farnesyl-protein transferase” (Merck & Co., Inc., priority 1997, dated 1998).

Target: T1, human FPTase (Homo sapiens, UniProt P49354+P49356)
T1 construct: made in house
Assay: In vitro inhibition of human farnesyl-protein transferase ([3H]-FPP incorporation into Ras-CVIM)
Format: biochemical
Details: 100 nM Ras-CVIM, 30 min, read-out: IC50, inhibitory activity against human FPTase

Row | IC50 [µM] | Compound
1 | < 20 | COC1OC(OC)c2c1cc(O)c1c2O[C@@]2(C)CC[C@H]3C(C)(C)[C@@H](OC(C)=O)CC[C@]3(C)[C@H]2C1 (some centres unmarked) [Compound I]
2 | < 20 | CC(=O)O[C@H]1CC[C@]2(C)[C@H]3Cc4c(O)cc5c(c4O[C@@]3(C)CC[C@H]2C1(C)C)COC5=O [Compound II]
